Test results from US12344620B2, “BRD4 inhibitor compound in solid form and preparation method therefor and use thereof” (CSPC ZHONGQI PHARMACEUTICAL TECHNOLOGY (SHIJIAZHUANG) CO., …, priority 2019, dated 2025).
Like-named read-outs stand apart in the source and are kept apart here.

Legend:
[1] = test system: Mouse colon cancer MC38 cells; test: In vivo anti-tumor effect, MC38 mouse colon cancer transplantation tumor model; settings: 15, 25 and 50 mg/kg PO BID x 20 days
Description: • Species: mouse • Strain: C57BL6 mouse • Week-age and weight: 6-7 weeks of age, 16-20 grams of body weight • Sex: Female • Supplier: Shanghai SLAC Laboratory Animal Co., Ltd.
Mouse colon cancer MC38 cells (OBiO Technology (Shanghai) Corp., Ltd.) were cultured in monolayer in vitro, and the culture conditions were DMEM culture medium (Gibco; article number: 12100) with 10% fetal bovine serum at 37° C. in 5% CO2 in an incubator. Conventional digestion treatment with 0.25% pancreatin-EDTA for passage was carried out. When the cells were in the exponential growth phase and the density was 80%-90%, the cells were harvested, counted, and inoculated. […]
Tumor diameter was measured twice a week with vernier calipers. […]
The tumor inhibition effect of the compound was evaluated by TGI (%) or relative tumor proliferation rate T/C (%). […] The relative tumor volume (RTV) was calculated according to the results of the tumor measurement. The calculation equation was RTV=Vt/V0, where V0 was the average tumor volume measured at the grouping and administration (i.e. D0), and Vt was the average tumor volume at the time of a certain measurement. […]
Statistical analysis was performed using SPSS software based on the tumor volume and the tumor weight at the end of the experiment. The comparison between two groups was analyzed by t-test, and the comparison between three or more groups was analyzed by one-way ANOVA.

[2] = In vivo pharmacokinetics test in mice; settings: mouse, plasma, po; female Balb/c mice, intragastric, 3 mg/kg; read-out: Bioavailability F
Description: (§1) Female Balb/c mice were used as test animals. The compound of formula (I) was administrated intravenously and intragastrically to mice, then the drug concentrations in the plasma at different time points were determined by the LC/MS/MS method. The in vivo pharmacokinetic behavior of the compound of formula (I) in mice was studied, and its pharmacokinetic characteristics were evaluated.
Sixteen healthy adult female Balb/c mice were divided into four groups according to the principle of similar body weight, with four mice in each group. The animals were purchased from Shanghai Lingchang BioTech Co., Ltd. of Shanghai SLAC Laboratory Animal Co., Ltd., and the animal production license number was SCXK (Shanghai) 2013-0018.
An appropriate amount of the sample was taken, 5% final volume of DMSO was added, and then 95% final volume of 20% HP-β-CD was added. The mixture was ultrasonically stirred to obtain a 0.5 mg/mL clear solution. After filtration, it was used for the intravenous administration. […]
(§2) The LC/MS/MS method was used to measure the content of the compound to be tested in the plasma after the intravenous and intragastric administration to the mice. The linear range of the method was 2.00-6000 nmol/L; the plasma samples were analyzed after the protein precipitation by acetonitrile treatment.

[3] = In vivo pharmacokinetics test in rat; settings: plasma, male SD rats, crystalline form A used; for AUC(0-inf): read-out: Area under curve (0-inf) AUC0-inf; for AUC(0-t): read-out: Area under curve (0-t) AUC0-last; for half-life: read-out: Half life T1/2 (converted)
Description: as §1, with “Male SD rats” for “Female Balb/c mice”, “rats, and” for “mice,”, “rats” for “mice”
1.1 Experiment Drug: The Compound of Formula (I) (the Crystalline Form A)
4 healthy adult male SD rats were divided into 2 groups according to the similar weight principle, with 2 rats in each group. The animals were commercially available from Beijing Weitonglihua Laboratory Animals Ltd., animal production license number: SCXK (Beijing) 2016-0006.
An appropriate amount of the sample was taken, 5% final volume of DMSO was added, and then 95% final volume of 20% HP-β-CD was added. The mixture was ultrasonically stirred to obtain a 0.5 mg/mL clear solution. After filtration, it was used for the intravenous administration.
An appropriate amount of the sample was taken, and dissolved in a 0.5% sodium carboxymethyl cellulose solution. The mixture was ultrasonically stirred to obtain a 1 mg/mL homogeneous suspension, which was used for the intragastric administration.
Four male SD rats were divided into two groups. After fasting overnight, the first group was administered intravenously with the administration volume of 4 mL/kg and the dosage of 2 mg/kg. The second group was administered intragastrically with the administration volume of 10 mL/kg and the dosage of 10 mg/kg.
After the male SD rats were intravenously administrated, 100 μL of blood was taken at each time point of 0.0833, 0.25, 0.5, 1, 2, 4, 6, 8 and 24 hours, and placed in test tubes containing 2 μL of EDTA-K2; and after the SD rats were intragastrically administrated, 100 μL of blood was taken at each time point of 0.0833, 0.25, 0.5, 1, 2, 4, 6, 8 and 24 hours, and placed in test tubes containing 2 μL of EDTA-K2. The tube was centrifuged at 3000 g for 15 minutes to separate the plasma, and the separated plasma was stored at −60° C. Animals could be fed 2 hours after the administration.
as §2, with “rats.” for “mice.”

## Cc1sc2c(c1C)C(c1ccc(Cl)cc1)=N[C@@H](CC(=O)Nc1ccc3c(c1)COC3=O)c1nnc(C)n1-2 [Compound of formula (I)]
[1]
  tolerance: good tolerance
[2]
  bioavailability: 37.5%
[3]; intravenous, 2 mg/kg, read-out: Apparent distribution Vdss
  Vd: 1.48 L/kg
[3]; intravenous, 2 mg/kg
  AUC(0-inf): 2.22 µM·h
  AUC(0-t): 2.21 µM·h
  half-life: 0.683 h
[3]; intravenous, 2 mg/kg, read-out: Clearance rate Cl
  clearance: 28.3 mL/min/kg
[3]; po, intragastric, 10 mg/kg
  bioavailability: 29.3%
  AUC(0-inf): 3.25 µM·h
  AUC(0-t): 3.22 µM·h
  half-life: 1.01 h
[3]; po, intragastric, 10 mg/kg, read-out: Drug concentration in blood Cmax
  Cmax: 1160 nM
[3]; po, intragastric, 10 mg/kg, read-out: Time to peak Tmax
  Tmax: 1 h
